Tested on: 817829-284-R-J1-PDC multi-cell spheroid viability
Assay: Anticancer human tumor 817829-284-R-J1-PDC patient-derived colon adenocarcinoma cell line growth inhibition [PI3K]
Conditions: for IC50: curve of first compound; for viability, T/C: stronger effect = lower value
Source text: Combinatorial screen of targeted agents with the PI3K inhibitors inavolisib, alpelisib, duvelisib, and copanlisib in multi-cell type tumor spheroids
A high-throughput screen of multi-cell type tumor spheroids was designed to identify active combinations of targeted small molecules and PI3K pathway inhibitors. Complex spheroids include a stromal component modeled by human endothelial cells (HUVEC) and fibroblasts modeled by human mesenchymal stem cells (MSCs). The concentration ranges selected for each drug and investigational agent were based upon clinically achievable concentrations if the clinical Cmax of the agent was known.
Compounds. The drugs and investigational agents: inavolisib (NSC800729), alpelisib (NSC765974), duvelisib (NSC772469), copanlisib (NSC816437), ipatasertib (NSC767898), afuresertib (NSC778305), talazoparib (NSC767125), sapanisertib (NSC764658), selumetinib (NSC741078), tovorafenib (DAY101, NSC766906), vemurafenib (NSC761431), ravoxertinib (NSC781343), sotorasib (NSC818433), MRTX1133 (NSC 836407), abemaciclib (NSC 768073), palbociclib (NSC758247), venetoclax (NSC 766270), SY5609 (NSC837396), enzalutamide (NSC755605), and darolutamide (NSC825331), were obtained from the National Cancer Institute (NCI) Developmental Therapeutics Program Chemical Repository. The FDA-approved anticancer drug set is available from the NCI Developmental Therapeutics Program. […] The stock solutions were prepared in dimethyl sulfoxide (DMSO, Sigma-Aldrich, St. Louis, MO, cat. D2650) at 800-fold the tested concentration and stored at -70 degrees C prior to their use. All drugs and investigational agents were tested over a range starting from a high concentration at or near the clinical Cmax and decreasing in half-log increments. If the clinical Cmax for an agent had not been determined, the highest concentration tested was 10 microM.
Cell Culture. All cells were maintained in an incubator at 37 degrees C and 5% CO2 with 95% humidity. The PDC lines were cultured according to standard operating procedures established by the NCI PDMR (https://pdmr.cancer.gov/sops/default.htm). All PDCs were thawed and cultured in Matrigel-coated flasks prepared with a working solution of 1X Ham's F-12 nutrient mix, without supplementation (Invitrogen, Waltham, MA, cat. 11765054), 100 U/mL penicillin-streptomycin (Invitrogen, cat. 15140122), and 2.5% Matrigel (Corning Inc., Corning, NY, cat. 354248) for the first three passages. The 354836-022-R-J1-PDC, 475296-252-R-J1-PDC, and 997726-040-R-J2-PDC lines were cultured in 6A media, which includes advanced DMEM/F-12 (Thermo Fisher Scientific, cat. 12634028), 10 mM HEPES (Thermo Fisher Scientific, cat. 15630080), 1X GlutaMAX supplement (Thermo Fisher Scientific, cat. 35050061), 0.1 mg/mL primocin (InvivoGen, San Diego, CA, cat. ant-pm-2), 10% defined fetal bovine serum, heat inactivated (HyClone Laboratories Inc., Logan, UT, cat. SH30070.03HI), 50% L-WRN conditioned media (ATCC, cat. CRL-3276), 1.25 mM N-Acetyl-L-cysteine (Sigma-Aldrich, cat. A9165), 10 mM nicotinamide (Sigma-Aldrich, cat. N0636), 1X B-27 supplement (Thermo Fisher Scientific, cat. 17504044), 1X N-2 supplement (Thermo Fisher Scientific, cat. 17502048), and 10 microM Y-27632 dihydrochloride (Tocris Bioscience, Bristol, United Kingdom, cat. 1254). The 624824-186-R-J2-PDC line was cultured in 6C/Colon 1B media, which includes all 6A media components plus 50 ng/mL human EGF recombinant protein (Thermo Fisher Scientific, cat. PHG0311). […]
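Further: spheroids exposed to agents for seven days before readout.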
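Wherever viability, T/C is given: percent of vehicle DMSO control viability which is 100%.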

Structure (SMILES): Cn1cnc2c(F)c(Nc3ccc(Br)cc3Cl)c(C(=O)NOCCO)cc21 + COc1c(OCCCN2CCOCC2)ccc2c3n(c(=NC(=O)c4cnc(N)nc4)nc12)CCN3
- IC50 (second compound 0.00316 µM): 487 nM
- IC50 (second compound 0.01 µM): 82.7 nM
- IC50 (second compound 0.0316 µM): 80.1 nM
- IC50 (second compound 0.1 µM): < 9.49 nM
- IC50 (second compound 0.316 µM): < 9.49 nM
- IC50 (second compound 1 µM): < 9.49 nM
- viability, T/C (second compound 0.00316 µM, first compound 0.00949 µM): 63.7%
- viability, T/C (second compound 0.00316 µM, first compound 0.03 µM): 43.5%
- viability, T/C (second compound 0.00316 µM, first compound 0.0949 µM): 70.4%
- viability, T/C (second compound 0.00316 µM, first compound 0.3 µM): 69%
- viability, T/C (second compound 0.00316 µM, first compound 0.949 µM): 34%
- viability, T/C (second compound 0.00316 µM, first compound 3 µM): 32.1%
- viability, T/C (second compound 0.01 µM, first compound 0.00949 µM): 62.3%
- viability, T/C (second compound 0.01 µM, first compound 0.03 µM): 72.2%
- viability, T/C (second compound 0.01 µM, first compound 0.0949 µM): 35.5%
- viability, T/C (second compound 0.01 µM, first compound 0.3 µM): 43.7%
- viability, T/C (second compound 0.01 µM, first compound 0.949 µM): 32.7%
- viability, T/C (second compound 0.01 µM, first compound 3 µM): 22.9%
- viability, T/C (second compound 0.0316 µM, first compound 0.00949 µM): 66.5%
- viability, T/C (second compound 0.0316 µM, first compound 0.03 µM): 50.9%
- viability, T/C (second compound 0.0316 µM, first compound 0.0949 µM): 56%
- viability, T/C (second compound 0.0316 µM, first compound 0.3 µM): 39.5%
- viability, T/C (second compound 0.0316 µM, first compound 0.949 µM): 25.8%
- viability, T/C (second compound 0.0316 µM, first compound 3 µM): 18%
- viability, T/C (second compound 0.1 µM, first compound 0.00949 µM): 48%
- viability, T/C (second compound 0.1 µM, first compound 0.03 µM): 27.9%
- viability, T/C (second compound 0.1 µM, first compound 0.0949 µM): 39.6%
- viability, T/C (second compound 0.1 µM, first compound 0.3 µM): 29.3%
- viability, T/C (second compound 0.1 µM, first compound 0.949 µM): 24.4%
- viability, T/C (second compound 0.1 µM, first compound 3 µM): 29.3%
- viability, T/C (second compound 0.316 µM, first compound 0.00949 µM): 19.6%
- viability, T/C (second compound 0.316 µM, first compound 0.03 µM): 14.8%
- viability, T/C (second compound 0.316 µM, first compound 0.0949 µM): 16.3%
- viability, T/C (second compound 0.316 µM, first compound 0.3 µM): 11.3%
- viability, T/C (second compound 0.316 µM, first compound 0.949 µM): 11.7%
- viability, T/C (second compound 0.316 µM, first compound 3 µM): 6.47%
- viability, T/C (second compound 1 µM, first compound 0.00949 µM): 15.4%
- viability, T/C (second compound 1 µM, first compound 0.03 µM): 7.31%
- viability, T/C (second compound 1 µM, first compound 0.0949 µM): 5.89%
- viability, T/C (second compound 1 µM, first compound 0.3 µM): 4.21%
- viability, T/C (second compound 1 µM, first compound 0.949 µM): 4.29%
- viability, T/C (second compound 1 µM, first compound 3 µM): 1.75%

Structure (SMILES): CC(C)n1nc(-c2ccc3oc(N)nc3c2)c2c(N)ncnc21 + CC(Nc1ncnc2nc[nH]c12)c1cc2cccc(Cl)c2c(=O)n1-c1ccccc1
- IC50 (second compound 0.0316 µM): 19.7 nM
- IC50 (second compound 0.1 µM): 33.9 nM
- IC50 (second compound 0.316 µM): 15.8 nM
- IC50 (second compound 1 µM): 19.5 nM
- IC50 (second compound 3.16 µM): 9.43 nM
- IC50 (second compound 10 µM): 10.9 nM
- viability, T/C (second compound 0.0316 µM, first compound 0.000316 µM): 74.9%
- viability, T/C (second compound 0.0316 µM, first compound 0.001 µM): 107%
- viability, T/C (second compound 0.0316 µM, first compound 0.00316 µM): 57.3%
- viability, T/C (second compound 0.0316 µM, first compound 0.01 µM): 62.7%
- viability, T/C (second compound 0.0316 µM, first compound 0.0316 µM): 44.8%
- viability, T/C (second compound 0.0316 µM, first compound 0.1 µM): 18.1%
- viability, T/C (second compound 0.1 µM, first compound 0.000316 µM): 100%
- viability, T/C (second compound 0.1 µM, first compound 0.001 µM): 121%
- viability, T/C (second compound 0.1 µM, first compound 0.00316 µM): 64%
- viability, T/C (second compound 0.1 µM, first compound 0.01 µM): 80%
- viability, T/C (second compound 0.1 µM, first compound 0.0316 µM): 56.7%
- viability, T/C (second compound 0.1 µM, first compound 0.1 µM): 18.7%
- viability, T/C (second compound 0.316 µM, first compound 0.000316 µM): 135%
- viability, T/C (second compound 0.316 µM, first compound 0.001 µM): 77.2%
- viability, T/C (second compound 0.316 µM, first compound 0.00316 µM): 94.2%
- viability, T/C (second compound 0.316 µM, first compound 0.01 µM): 59.9%
- viability, T/C (second compound 0.316 µM, first compound 0.0316 µM): 31.3%
- viability, T/C (second compound 0.316 µM, first compound 0.1 µM): 27.5%
- viability, T/C (second compound 1 µM, first compound 0.000316 µM): 89.4%
- viability, T/C (second compound 1 µM, first compound 0.001 µM): 124%
- viability, T/C (second compound 1 µM, first compound 0.00316 µM): 74.4%
- viability, T/C (second compound 1 µM, first compound 0.01 µM): 66.3%
- viability, T/C (second compound 1 µM, first compound 0.0316 µM): 41.9%
- viability, T/C (second compound 1 µM, first compound 0.1 µM): 18.9%
- viability, T/C (second compound 3.16 µM, first compound 0.000316 µM): 106%
- viability, T/C (second compound 3.16 µM, first compound 0.001 µM): 86.4%
- viability, T/C (second compound 3.16 µM, first compound 0.00316 µM): 96%
- viability, T/C (second compound 3.16 µM, first compound 0.01 µM): 47.4%
- viability, T/C (second compound 3.16 µM, first compound 0.0316 µM): 44.2%
- viability, T/C (second compound 3.16 µM, first compound 0.1 µM): 23.8%
- viability, T/C (second compound 10 µM, first compound 0.000316 µM): 80%
- viability, T/C (second compound 10 µM, first compound 0.001 µM): 68.5%
- viability, T/C (second compound 10 µM, first compound 0.00316 µM): 106%
- viability, T/C (second compound 10 µM, first compound 0.01 µM): 52.1%
- viability, T/C (second compound 10 µM, first compound 0.0316 µM): 30.3%
- viability, T/C (second compound 10 µM, first compound 0.1 µM): 17.8%

Source: PubChem BioAssay AID1963969 (Molecular Pharmacology Branch, DTP, NCI, 2024)
